Experimental data from patent publication US8148095B2, “Methods for predicting psychotropic drugs which elicit weight gain” (The Johns Hopkins University, priority 2006, dated 2012).
Read-outs that look alike come from different tables or passages of the source.

What was measured:
histamine H1 receptors = biological target: T1, histamine H1 receptors (Rattus norvegicus, UniProt P31390); test: Histamine H1 receptor binding, [3H]mepyramine displacement in rat brain membranes; details: 12 concentrations 30 pM to 10 μM, means of 3 determinations
T1 construct: from tissue; host or cells: rat forebrain membranes
Description: Receptor binding was assayed using rat brain membranes incubated with [^3H]mepyramine and 12 concentrations of drugs ranging from 30 pM to 10 μM in triplicate. […] Hypothalamic Slices
Briefly, rats were killed by decapitation and the forebrains removed. Brains were homogenized in 30 vol of Na-K phosphate buffer, pH 7.5, and centrifuged at 48,000×g for 10 min. The tissue was resuspended in buffer and re-centrifuged for an additional 3 times. Tissue was resuspended in buffer at 15 mg/ml.
Tissue (0.2 ml) was added to tubes containing 25 μl of drug and 25 μl of [3H]mepyramine (30 nM). Non-specific binding was determined in the presence of 1 μM triprolidine.

hypothalamic AMPK = test: Phospho-AMPK in hypothalamic slices by Western blotting; type: cell-based, mice; details: 30 min; for levels of phospho-AMPK: 500 nM drug; for effect on hypothalamic phospho-AMPK: various concentrations
From the text: FIGS. 1A-1F. AAPDs activate AMPK in hypothalamic slices.
The slices were dispersed in artificial cerebrospinal fluid buffer.

phospho-AMPK = details: ziprasidone 3 mg/kg i.p., 3 h
Description: Immunohistochemistry was performed with an antibody specific for phospho-AMPK. (FIG. 4D) Quantification of immunohistochemistry. Bars represent the mean±SE of five independent slides. (*p<0.005, **p<0.001 Student's t-test, n=5)
C57BL/6 mice or HR1−/− mice (8-10 weeks) were perfused with 4% paraformaldehyde maintained at 37° C. Organs were post-fixed 2 h at room temperature and cryoprotected overnight at 4° C. (30% sucrose in PBS). Free-floating sections (45 μm) were quenched with 3% H2O2 in water for 10 min at room temperature, washed in TBS-T (16 mM Tris pH 7.4, 140 mM sodium chloride, and 0.1% tween-20), and antigen retrieved for 30 min in a 70° C. water bath (10 mM sodium citrate in TBS-T). Sections were blocked (5% NGS in TBS-T) for 1 h at room temperature and incubated with a mouse anti-phospho-AMPKα antibody (Cell Signaling, Danvers, Mass.) diluted 1:200 into the blocking solution overnight at 4° C. Subsequent washes were conducted in TBST, and labeling was visualized with the Vectastain Elite ABC kit (Vector Laboratories, Burlingame, Calif.). Images were quantified with AlphaEaseFC program.

AMPK = test: Phospho-AMPK in tissues of intact mice by Western blotting; type: in vivo; details: for stimulation of hypothalamic phospho-AMPK in intact animals: triprolidine 3 mg/kg i.p., 3 h
Description: (§1) FIGS. 2A-2D. AAPDs activate AMPK in intact animals. […] Hypothalami were removed and tissue lysates analyzed for phospho-AMPK or α2-AMPK activity. […] Different parts of brain were isolated and α2-AMPK activity was assayed. Bars represent the mean±SE of three independent lysates performed in triplicate. (* Student's t-test, n=5)
FIGS. 5A-5F. […] Cerebellum and liver were removed and phosphorylated AMPK (AMPK-P) detected by western blotting. Each lane represents tissue from individual mouse. […] Hypothalamus, cerebellum and liver were removed and phosphorylated AMPK (AMPK-P) detected by western blotting. Each lane represents a tissue from individual mouse. […] Hypothalamus and cerebellum were removed and phosphorylated AMPK (AMPK-P) detected by western blotting. Each lane represents a tissue from individual mouse. […] Hypothalami were removed and phosphorylated AMPK (AMPK-P) detected by western blotting. Each lane represents a tissue from an individual mouse. […] Hypothalami were removed and AMPK activity monitored as described in Material and Methods. Bars represent the mean±SE of three independent lysates performed in triplicate.
(§2) Experiments were done at age 8-10 weeks. All drugs were administered by i.p. injection. […] Procedures were approved by guidelines of the Johns Hopkins University School of Medicine Institutional Animal Care and Use Committee.
All drugs were purchased from Toronto Research Chemicals Inc. (Toronto, Canada). […] The drug was diluted with 8.5 ml saline solution, and the appropriate doses were administrated to mice. For control mice, the same solution was injected without a drug. For in vitro assays, drugs were dissolved in DMSO.

α2-AMPK = α2-AMPK activity in tissue lysates of intact mice; type: in vivo; details: leptin 3 mg/kg
Description: as §1, §2

T1 sequence (P31390 whole entry): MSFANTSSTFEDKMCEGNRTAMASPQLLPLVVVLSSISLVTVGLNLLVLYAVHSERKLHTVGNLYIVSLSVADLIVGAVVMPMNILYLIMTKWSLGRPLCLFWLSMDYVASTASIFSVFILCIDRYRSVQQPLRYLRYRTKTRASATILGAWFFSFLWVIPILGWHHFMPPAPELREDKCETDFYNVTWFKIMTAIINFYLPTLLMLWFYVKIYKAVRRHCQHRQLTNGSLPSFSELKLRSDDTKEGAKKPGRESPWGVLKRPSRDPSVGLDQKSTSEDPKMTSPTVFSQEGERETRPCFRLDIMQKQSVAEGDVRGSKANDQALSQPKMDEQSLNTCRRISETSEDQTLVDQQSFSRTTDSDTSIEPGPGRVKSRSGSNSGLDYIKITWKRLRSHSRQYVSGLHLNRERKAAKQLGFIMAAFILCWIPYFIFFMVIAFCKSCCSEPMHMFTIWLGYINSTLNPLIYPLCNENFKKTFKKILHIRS

Molecule: O=C1CCc2ccc(OCCCCN3CCN(c4cccc(Cl)c4Cl)CC3)cc2N1 [Aripipirazole]
- IC50 (histamine H1 receptors): > 3 µM
- levels of phospho-AMPK (hypothalamic AMPK): fail to stimulate

Molecule: O=C(CCCN1CCC(O)(c2ccc(Cl)cc2)CC1)c1ccc(F)cc1 [Haloperidol]
- levels of phospho-AMPK (hypothalamic AMPK): fail to stimulate

Molecule: Cc1nc2n(c(=O)c1CCN1CCC(c3noc4cc(F)ccc34)CC1)CCCC2 [Risperidone]
- levels of phospho-AMPK (hypothalamic AMPK): fail to stimulate

Molecule: O=C1Cc2cc(CCN3CCN(c4nsc5ccccc45)CC3)c(Cl)cc2N1 [Ziprasidone]
- IC50 (histamine H1 receptors): 0.15 µM
- phospho-AMPK in the paraventricular nucleus / hypothalamus (phospho-AMPK): fails to alter
- phospho-AMPK in the paraventricular nucleus / hypothalamus (phospho-AMPK; listed as Ziprasodine): no effect
- levels of phospho-AMPK (hypothalamic AMPK): fail to stimulate

Molecule: NCCc1c[nH]cn1 [histamine]
- effect of histamine on phospho-AMPK (hypothalamic AMPK; different concentrations of histamine): decreases

Molecule: Cc1ccc(/C(=C\CN2CCCC2)c2ccccn2)cc1 [triprolidine]
- stimulation of hypothalamic phospho-AMPK in intact animals (AMPK): to the same extent as clozapine
- stimulation of hypothalamic phospho-AMPK in intact animals (AMPK; listed as Triprolidine): activates
- stimulation of phospho-AMPK (hypothalamic AMPK; triprolidine 50 or 500 nM vs clozapine 200 nM): to the same extent as clozapine

Molecule: insulin
- effect on hypothalamic phospho-AMPK (hypothalamic AMPK): reductions

Molecule: leptin
- hypothalamic phospho-AMPK (AMPK; intact mice, leptin 3 mg/kg): reduces
- hypothalamic AMPK catalytic activity (α2-AMPK): reduces
- effect on hypothalamic phospho-AMPK (hypothalamic AMPK): reductions
